Measurements published in the supplement of paper PMC10307832.

Experiments:
Test in all cases: relative viability (nuclei count vs DMSO), 5 days (fraction); higher = more cells survive
[1] = compound: CC(C)N(CCCNC(=O)Nc1ccc(C(C)(C)C)cc1)C[C@H]1O[C@@H](n2ccc3c(N)ncnc32)[C@H](O)[C@@H]1O + O=C(c1cc(Cc2n[nH]c(=O)c3ccccc23)ccc1F)N1CCN(C(=O)C2CC2)CC1 [Olaparib] (partner 8 µM)
Method in brief: (§1)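 Nuclei were stained with Hoechst during a one-step fixation (final 0.05% Triton X-100, 1% formaldehyde, 1 ug/ml Hoechst) carried out 5 days after dosing, then counted on 4× images. The cells, lung cancer lines in 1536-well plates, had been dosed by pin tool the day after seeding with one drug alone or a fixed anchor-drug dose plus five library-drug doses (not always all listed) in √10 steps. Relative viability is the nuclei count in treated wells divided by that in vehicle wells, and each value is the median of duplicate plates.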

[2] = compound: CC(C)N(CCCNC(=O)Nc1ccc(C(C)(C)C)cc1)C[C@H]1O[C@@H](n2ccc3c(N)ncnc32)[C@H](O)[C@@H]1O + Nc1ncn([C@H]2C[C@H](O)[C@@H](CO)O2)c(=O)n1 [Decitabine] (partner 2 µM)
Method in brief: as §1

[3] = compound: CC(C)N(CCCNC(=O)Nc1ccc(C(C)(C)C)cc1)C[C@H]1O[C@@H](n2ccc3c(N)ncnc32)[C@H](O)[C@@H]1O + C[C@@H](Oc1cc(-c2cnn(C3CCNCC3)c2)cnc1N)c1c(Cl)ccc(F)c1Cl [Crizotinib] (partner 1 µM)
Method in brief: as §1

Shikonin + Lapatinib = compound: CC(C)=CC[C@@H](O)C1=CC(=O)c2c(O)ccc(O)c2C1=O [Shikonin] + CS(=O)(=O)CCNCc1ccc(-c2ccc3ncnc(Nc4ccc(OCc5cccc(F)c5)c(Cl)c4)c3c2)o1 [Lapatinib] (partner 2 µM)
Method in brief: as §1

Cell Line	relative viability ([1]; first compound 0.08 µM)	relative viability ([1]; first compound 0.253 µM)	relative viability ([1]; first compound 0.8 µM)	relative viability ([1]; first compound 2.53 µM)	relative viability ([1]; first compound 8 µM)	relative viability ([2]; first compound 0.08 µM)	relative viability ([2]; first compound 0.253 µM)	relative viability ([2]; first compound 0.8 µM)	relative viability ([2]; first compound 2.53 µM)	relative viability ([2]; first compound 8 µM)	relative viability ([3]; first compound 0.08 µM)	relative viability ([3]; first compound 0.253 µM)	relative viability ([3]; first compound 0.8 µM)	relative viability ([3]; first compound 2.53 µM)	relative viability ([3]; first compound 8 µM)	relative viability (Shikonin + Lapatinib; first compound 0.01 µM)	relative viability (Shikonin + Lapatinib; first compound 0.1 µM)	relative viability (Shikonin + Lapatinib; first compound 0.3162 µM)	relative viability (Shikonin + Lapatinib; first compound 1 µM)
NCI-H2126	0.873	0.932	0.901	0.883	0.778	0.568	0.591	0.557	0.551	0.508	1.01	0.986	1.06	0.992	0.959	0.779	0.795	0.81	0.824
NCI-H2170	0.59	0.573	0.619	0.601	0.539	0.477	0.418	0.42	0.438	0.471	1.12	1.18	1.22	1.19	1.28	0.257	0.271	0.276	0.266
NCI-H2347	0.525	0.593	0.534	0.655	0.548	0.529	0.688	0.616	0.664	0.432	0.752	0.497	0.582	0.709	0.738	0.981	1.01	1.08	0.913
NCI-H2405	0.854	0.906	0.755	0.961	0.842	0.723	0.748	0.741	0.745	0.708	0.875	0.822	0.782	0.865	0.856	1.13	1.28	1.11	1.16
NCI-H3122	0.684	0.632	0.536	0.663	0.512	0.445	0.467	0.462	0.409	0.481	0.349	0.299	0.285	0.3	0.277	0.973	1.13	1	1.04
PC-3 [JPC-3]	1.12	1.15		1.11	1.07	0.766	0.726		0.799	0.864	0.991	0.994	0.885	0.977	0.917	0.443	0.512	0.479	0.543
PC-14	0.303	0.249	0.281	0.257	0.247	0.191	0.246	0.215	0.231	0.206	0.907	0.881	0.97	0.943	0.723	0.334	0.342	0.329	0.326
RERF-LC-KJ	0.887	1.04	0.843	1	0.963	0.703	0.685	0.715	0.639	0.693	0.821	0.85	0.845	0.789	0.779	0.972	0.939	0.83	0.941
SK-LU-1	0.424	0.448	0.516	0.552	0.469	0.626	0.642	0.657	0.702	0.568	1.03	0.931	0.969	1.08	0.875	1.07	0.869	0.724	0.786
SK-MES-1	0.83	0.811	0.734	0.713	0.662	0.436	0.377	0.36	0.384	0.377	0.991	1.05	1.01	0.997	0.956	0.543	0.509	0.514	0.463
SW 1573	0.464		0.517	0.441	0.53	0.464		0.636	0.512	0.543	0.749	0.894	0.825	0.846	0.695	1.07	1.18	1.14	1.19
UMC-11	0.407	0.447	0.378	0.327	0.323	0.584	0.621	0.488	0.534	0.585	0.579	0.706	0.723	0.656	0.636	1	1.08	1	1.12
